From PMC5377466 (Scientific Reports, 2014)
One block for each molecule: values may come before it.

Assays:
CYP3A4 = CYP3A4 (Homo sapiens, UniProt P08684); assay: Vivid CYP450 screening kit, recombinant CYP 3A4 activity; type: biochemical; conditions: recombinant CYP3A4 BACULOSOMES, probe Vivid BOMR
[1] = Pharmacokinetics of oral EVL in rats without and with coadministered curcumin; type: in vivo; conditions: for AUC(0-t): male, Sprague-Dawley, rat, whole blood, po, 0.5 mg/kg, AUC0-540, area under the blood concentration-time curve from 0 to 540 min
[2] = cited from earlier work
P-gp = P-gp (Homo sapiens, UniProt P08183); assay: P-gp mediated transport of rhodamine 123; type: cell-based; conditions: LS 180 cells, 4-h incubation
[3] = EVL 0.5 mg/kg + curcumin 50 mg/kg
[4] = EVL 0.5 mg/kg + curcumin 100 mg/kg

Sequence of CYP3A4 (P08684 whole entry): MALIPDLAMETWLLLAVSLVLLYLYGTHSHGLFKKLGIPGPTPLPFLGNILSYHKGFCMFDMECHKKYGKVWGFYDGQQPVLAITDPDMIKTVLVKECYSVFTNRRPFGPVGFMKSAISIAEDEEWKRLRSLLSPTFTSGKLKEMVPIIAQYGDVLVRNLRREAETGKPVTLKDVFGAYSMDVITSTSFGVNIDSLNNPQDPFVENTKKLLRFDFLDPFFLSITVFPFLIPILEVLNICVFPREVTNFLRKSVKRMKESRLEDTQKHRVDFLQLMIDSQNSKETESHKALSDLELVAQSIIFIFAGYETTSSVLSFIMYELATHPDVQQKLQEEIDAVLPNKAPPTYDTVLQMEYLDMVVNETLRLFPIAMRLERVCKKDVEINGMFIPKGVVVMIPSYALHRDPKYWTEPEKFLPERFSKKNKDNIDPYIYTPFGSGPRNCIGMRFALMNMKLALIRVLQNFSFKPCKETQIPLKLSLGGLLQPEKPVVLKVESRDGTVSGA
Sequence of P-gp (P08183 whole entry): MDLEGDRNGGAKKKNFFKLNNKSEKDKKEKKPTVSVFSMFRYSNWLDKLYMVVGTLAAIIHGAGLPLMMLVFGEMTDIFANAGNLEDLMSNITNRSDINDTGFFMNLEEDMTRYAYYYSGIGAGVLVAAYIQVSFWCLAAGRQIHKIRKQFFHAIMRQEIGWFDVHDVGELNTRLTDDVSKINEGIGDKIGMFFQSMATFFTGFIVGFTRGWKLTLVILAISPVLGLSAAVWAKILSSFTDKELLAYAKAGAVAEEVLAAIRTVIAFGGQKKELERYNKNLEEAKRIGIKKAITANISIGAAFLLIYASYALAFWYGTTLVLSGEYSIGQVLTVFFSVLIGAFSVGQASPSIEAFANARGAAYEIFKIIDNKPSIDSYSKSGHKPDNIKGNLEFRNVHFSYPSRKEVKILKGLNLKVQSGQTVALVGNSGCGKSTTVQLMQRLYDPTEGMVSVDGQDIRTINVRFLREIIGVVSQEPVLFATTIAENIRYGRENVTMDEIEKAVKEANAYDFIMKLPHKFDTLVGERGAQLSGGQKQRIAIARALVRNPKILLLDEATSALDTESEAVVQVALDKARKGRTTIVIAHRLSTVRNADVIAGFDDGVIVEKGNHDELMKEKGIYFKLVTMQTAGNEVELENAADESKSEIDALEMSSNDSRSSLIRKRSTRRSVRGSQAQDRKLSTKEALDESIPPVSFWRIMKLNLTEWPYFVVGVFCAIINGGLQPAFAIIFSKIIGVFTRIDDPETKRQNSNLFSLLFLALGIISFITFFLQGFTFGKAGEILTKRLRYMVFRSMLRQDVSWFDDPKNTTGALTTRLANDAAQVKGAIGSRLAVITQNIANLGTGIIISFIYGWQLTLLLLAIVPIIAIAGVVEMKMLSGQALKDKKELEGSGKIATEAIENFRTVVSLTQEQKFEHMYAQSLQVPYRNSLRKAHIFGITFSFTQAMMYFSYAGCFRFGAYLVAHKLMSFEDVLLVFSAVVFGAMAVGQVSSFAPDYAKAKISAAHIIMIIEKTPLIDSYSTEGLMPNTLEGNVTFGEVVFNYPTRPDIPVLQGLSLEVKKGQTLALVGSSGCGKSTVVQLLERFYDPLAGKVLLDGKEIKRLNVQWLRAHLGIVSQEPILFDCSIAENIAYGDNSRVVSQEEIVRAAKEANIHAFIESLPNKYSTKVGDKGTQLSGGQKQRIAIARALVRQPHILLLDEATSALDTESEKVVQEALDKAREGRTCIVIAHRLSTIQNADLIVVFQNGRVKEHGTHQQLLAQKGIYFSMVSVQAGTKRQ

- inhibition at 30 min, 0.5 µM (CYP3A4): 10%
- inhibition at 30 min, 1 µM (CYP3A4): 10%
SMILES: O=C(/C=C/c1ccc(O)cc1)CC(=O)/C=C/c1ccc(O)cc1 [bis-demethoxycurcumin]

- Change of AUC0-540 versus EVL alone [1, 3]: −70.6%
- Change of Cmax versus EVL alone [1, 3]: −76.7%
- Change of AUC0-540 versus EVL alone [1, 4]: −71.5%
- Change of Cmax versus EVL alone [1, 4]: −76.7%
- Change of MRT versus EVL alone [1, 4]: 35.3%
- AUC(0-t) ([1]; oral EVL 0.5 mg/kg + curcumin 50 mg/kg): 8.03 ng·h/mL
- AUC(0-t) ([1]; oral EVL 0.5 mg/kg + curcumin 100 mg/kg): 7.77 ng·h/mL
- AUC(0-t) ([1]; oral EVL 0.5 mg/kg alone): 27.3 ng·h/mL
SMILES: CO[C@H]1C[C@@H]2CC[C@@H](C)[C@@](O)(O2)C(=O)C(=O)N2CCCC[C@H]2C(=O)O[C@H]([C@H](C)C[C@@H]2CC[C@@H](OCCO)[C@H](OC)C2)CC(=O)[C@H](C)/C=C(\C)[C@@H](O)[C@@H](OC)C(=O)[C@H](C)C[C@H](C)/C=C/C=C/C=C/1C [EVL, Everolimus]
- Half-life [2]: 18 to 35 h
- Oral bioavailability [2]: 15–16%
- Time to peak concentration ([2]; oral): 0.5 to 4.0 h

- inhibition at 30 min, 5 µM (CYP3A4): 21%
- inhibition at 30 min, 10 µM (CYP3A4): 53%
SMILES: COc1cc(/C=C/C(O)=C/C(=O)/C=C/c2ccc(O)cc2)ccc1O [demethoxycurcumin]

- Effect on the MRT of EVL by coadministered curcumin ([1]; curcumin 50 mg/kg oral with EVL 0.5 mg/kg): not affected
- Decrease of the efflux function of P-gp (rhodamine 123 accumulation) (P-gp; 25 μM): 13.2%
- Decrease of the efflux function of P-gp (rhodamine 123 accumulation) (P-gp; 50 μM): 16.7%
- Decrease of the efflux function of P-gp (rhodamine 123 accumulation) (P-gp; 100 μM): 172.9%
- inhibition at 30 min, 5 µM (CYP3A4): 93%
- inhibition at 30 min, 10 µM (CYP3A4): 90%
SMILES: COc1cc(/C=C/C(=O)CC(=O)/C=C/c2ccc(O)c(OC)c2)ccc1O [curcumin, Diferuloylmethane]
